# Where a name gives a salt, the structure may show the parent alone.
row,Structure (SMILES),melting point
1,"CCN1CCN(c2nc(-c3ccc(CCCO)cc3)cc3ccccc23)CC1 (as salt: hydrochloride) [Example 20, 1-(4-ethylpiperazin-1-yl)-3-[4-(3-hydroxypropyl)phenyl]isoquinoline hydrochloride]",116 to 119 °C
2,"CCN1CCN(c2nc(-c3ccc(CCCCO)cc3)cc3ccccc23)CC1 (as salt: hydrochloride) [Example 23, 3-[4-(4-hydroxybutyl)phenyl]-1-(4-ethylpiperazin-1-yl)isoquinoline hydrochloride]",140 to 144 °C
3,"CCN1CCN(c2nc(-c3ccc(C(O)CCO)cc3)cc3ccccc23)CC1 (stereo not drawn) (as salt: hydrochloride) [Example 24, 3-[4-(1,3-dihydroxypropyl)phenyl]-1-(4-ethylpiperazin-1-yl)isoquinoline hydrochloride]",145 to 147 °C
4,"CCN1CCN(c2nc(-c3ccc(C(O)CC(C)(C)O)cc3)cc3ccccc23)CC1 (stereo not drawn) (as salt: hydrochloride) [Example 25, 3-[4-(1,3-dihydroxy-3-methylbutyl)phenyl]-1-(4-ethylpiperazin-1-yl)isoquinoline]",190 to 192 °C
5,"CCN1CCN(c2nc(-c3ccc(C(CC(C)O)OC)cc3)cc3ccccc23)CC1 (stereo not drawn) (as salt: hydrochloride) [Example 26, 3-[4-(3-hydroxy-1-methoxybutyl)phenyl]-1-(4-ethylpiperazin-1-yl)isoquinoline]",171 to 174 °C
6,"CCN1CCN(c2nc(-c3ccc(C(F)CCO)cc3)cc3ccccc23)CC1 (stereo not drawn) (as salt: hydrochloride) [Example 27, 1-(1-Ethylpiperazin-4-yl)-3-[4-(3-hydroxy-1-fluoropropyl)phenyl]isoquinoline]",141 to 146 °C
7,"CCN1CCN(c2nc(-c3ccc(CO)c(F)c3)cc3ccccc23)CC1 (as salt: hydrochloride) [Example 28, 1-(4-ethylpiperazin-1-yl)-3-[4-(4-hydroxymethyl-3-fluoro)phenyl]isoquinoline hydrochloride]",228 °C (dec.)
8,CCN1CCN(c2nc(-c3ccc(CCCO)c(F)c3)cc3ccccc23)CC1 (as salt: hydrochloride) [Example 29],126 to 127 °C (dec.)
9,"CCN1CCN(c2nc(-c3ccc(CCCO)c(Cl)c3)cc3ccccc23)CC1 (as salt: hydrochloride) [Example 30, 3-[3-chloro-4-(3-hydroxypropyl)phenyl]-1-(4-ethylpiperazin-1-yl)isoquinoline hydrochloride]",123 to 124 °C
10,"CCN1CCN(c2nc(-c3ccc(CCCO)c(OC)c3)cc3ccccc23)CC1 (as salt: hydrochloride) [Example 33, 1-(4-ethylpiperazin-1-yl)-3-[4-(3-hydroxypropyl)-3-methoxyphenyl]isoquinoline hydrochloride]",123 to 124 °C
11,"CCN1CCN(c2nc(-c3ccc(OC)c(CCCO)c3)cc3ccccc23)CC1 (as salt: hydrochloride) [Example 34, 3-[3-(3-hydroxypropyl)-4-methoxyphenyl]-1-(4-ethylpiperazin-1-yl)isoquinoline hydrochloride]",157 to 160 °C
12,"CCN1CCN(c2nc(-c3ccc(OC)c(CCCCO)c3)cc3ccccc23)CC1 (as salt: hydrochloride) [Example 35, 3-[3-(4-hydroxybutyl)-4-methoxyphenyl]-1-(4-ethylpiperazin-1-yl)isoquinoline hydrochloride]",128 to 132 °C
13,"CCN1CCN(c2nc(-c3ccc(OCCO)cc3)cc3ccccc23)CC1 (as salt: hydrochloride) [Example 36, 1-(4-ethylpiperazin-1-yl)-3-[4-(2-hydroxyethoxy)phenyl]isoquinoline dihydrochloride]",127 to 129 °C
14,"CCN1CCN(c2nc(-c3cc(OCCO)cc(OCCO)c3)cc3ccccc23)CC1 (as salt: hydrochloride) [Example 38, 3-[3,5-di(2-hydroxyethoxy)phenyl]-1-(4-ethylpiperazin-1-yl)isoquinoline hydrochloride]",232 to 234 °C
15,"CCN1CCN(c2nc(-c3ccc(OCCO)c(Cl)c3)cc3ccccc23)CC1 (as salt: hydrochloride) [Example 39, 3-[3-chloro-4-(2-hydroxyethoxy)phenyl]-1-(4-ethylpiperazin-1-yl)isoquinoline hydrochloride]",138 to 140 °C
16,"CCN1CCN(c2nc(-c3ccc(OCCO)c(C)c3)cc3ccccc23)CC1 (as salt: hydrochloride) [Example 40, 3-[3-methyl-4-(2-hydroxyethoxy)phenyl]-1-(4-ethylpiperazin-1-yl)isoquinoline hydrochloride]",133 to 136 °C
17,"CCN1CCN(c2nc(-c3ccc(OCCO)c(C(C)C)c3)cc3ccccc23)CC1 (as salt: hydrochloride) [Example 41, 3-[3-isopropyl-4-(2-hydroxyethoxy)phenyl]-1-(4-ethylpiperazin-1-yl)isoquinoline hydrochloride]",248 to 250 °C (dec.)
18,"CCN1CCN(c2nc(-c3ccc(OCCOC)cc3)cc3ccccc23)CC1 (as salt: hydrochloride) [Example 42, 1-(4-ethylpiperazin-1-yl)-3-[4-(2-methoxyethoxy)phenyl]isoquinoline dihydrochloride]",184.5 to 185 °C (dec.)

row,Structure (SMILES),melting point
1,"CCN1CCN(c2nc(-c3ccc(OCCOC)c(OCCOC)c3)cc3ccccc23)CC1 (as salt: hydrochloride) [Example 43, 3-[3,4-Di(2-Methoxyethoxy)Phenyl]-1-(4-Ethylpiperazin-1-Yl)Isoquinoline Hydrochloride]",143 to 144 °C
2,"CCN1CCN(c2nc(-c3ccc(COCCO)cc3)cc3ccccc23)CC1 (as salt: hydrochloride) [Example 44, 3-[4-(2-Hydroxyethoxylmethylphenyl]-1-(4-ethylpiperazin-1-Yl)Isoquinoline Hydrochloride]",129 to 131 °C
3,"CCN1CCN(c2nc(-c3ccc(OCCF)cc3)cc3ccccc23)CC1 (as salt: hydrochloride) [Example 45, 1-(4-Ethylpiperazin-1-Yl)-3-[4-(2-Fluoroethoxy)Phenyl]Isoquinoline Dihydrochloride]",223 to 224 °C (dec.)
4,"CCN1CCN(c2nc(-c3ccc4c(c3)OCO4)cc3ccccc23)CC1 (as salt: hydrochloride) [Example 46, 3-(3,4-Methylenedioxyphenyl)-1-(4-Ethylpiperazin-1-Yl)Isoquinoline Hydrochloride]",223 to 227 °C
5,"CCN1CCN(c2nc(-c3ccc(OCCN(C)C)cc3)cc3ccccc23)CC1 (as salt: hydrochloride) [Example 49, 1-(1-Ethylpiperazin-4-Yl)-3-[4-(2-Dimethylaminoethoxy)Phenyl]Isoquinoline]",153 to 158 °C
6,"CCN1CCN(c2nc(-c3ccc(OCC#N)cc3)cc3ccccc23)CC1 (as salt: hydrochloride) [Example 51, 3-(4-Cyanomethoxyphenyl)-1-(4-Ethylpiperazin-1-Yl)Isoquinoline Hydrochloride]",123 to 125 °C
7,"CCN1CCN(c2nc(-c3ccc(OCCCC#N)cc3)cc3ccccc23)CC1 (as salt: hydrochloride) [Example 53, 3-[4-(3-Cyanopropoxy)Phenyl]-1-(4-Ethylpiperazin-1-Yl)Isoquinoline Hydrochloride]",144 to 146 °C
8,"CCN1CCN(c2nc(-c3ccc(OCCn4ccnc4)cc3)cc3ccccc23)CC1 (as salt: hydrochloride) [Example 56, 3-{4-[2-(1-Imidazonyl)Ethoxy]phenyl}-1-(4-Ethylpiperazin-1-Yl)Isoquinoline Hydrochloride]",160 to 162 °C
9,"CCN1CCN(c2nc(-c3ccc(OCCCc4ccncc4)cc3)cc3ccccc23)CC1 (as salt: hydrochloride) [Example 57, 3-{4-[3-(4-Pyridyl)Propoxy]Phenyl}-1-(4-Ethylpiperazin-1-Yl)Isoquinoline Hydrochloride]",129 to 131 °C
10,CCNC(=O)Oc1ccc(-c2cc3ccccc3c(N3CCN(CC)CC3)n2)cc1 (as salt: hydrochloride) [Example 59],146 to 150 °C
11,"CCN1CCN(c2nc(-c3ccc(C#N)cc3)cc3ccccc23)CC1 (as salt: hydrochloride) [Example 62, 3-(4-Cyanophenyl)-1-(4-Ethylpiperazin-1-Yl)Isoquinoline Hydrochloride]",241 °C (dec.)
12,"CCCNC(=O)c1ccc(-c2cc3ccccc3c(N3CCN(CC)CC3)n2)cc1 (as salt: hydrochloride) [Example 63, 1-(4-Ethylpiperazin-1-Yl)-3-(4-N-Propylaminocarbonylphenyl)Isoquinoline Hydrochloride]",149 to 150 °C
13,"CCN1CCN(c2nc(-c3ccc(C4=CCC(O)CC4)cc3)cc3ccccc23)CC1 (stereo not drawn) (as salt: hydrochloride) [Example 64, 3-[4-(4-Hydroxy-1-Cyclohexen-1-Yl)Phenyl]-1-(4-Ethylpiperazin-1-Yl)Isoquinoline Hydrochloride]",164 to 166 °C
14,"CCN1CCN(c2nc(-c3ccc(N)cc3)cc3ccccc23)CC1 (as salt: hydrochloride) [Example 65, 3-(4-Aminophenyl)-1-(4-Ethylpiperazin-1-Yl)Isoquinoline Hydrochloride]",267 to 268 °C
15,"CCN1CCN(c2nc(-c3ccc(N(C)C)cc3)cc3ccccc23)CC1 (as salt: hydrochloride) [Example 66, 3-[4-(N,N-Dimethylamino)Phenyl]-1-(4-Ethylpiperazin-1-Yl)Isoquinoline Dihydrochloride]",160 to 162 °C (dec.)
16,"CCN1CCN(c2nc(-c3ccc(NC(C)=O)cc3)cc3ccccc23)CC1 (as salt: hydrochloride) [Example 68, 3-(4-Acetamidephenyl)-1-(4-Ethylpiperazin-1-Yl)Isoquinoline Hydrochloride]",180 to 182 °C
17,"CCC(=O)Nc1ccc(-c2cc3ccccc3c(N3CCN(CC)CC3)n2)cc1 (as salt: hydrochloride) [Example 69, 3-(4-Ethylcarbonylaminophenyl)-1-(4-Ethylpiperazin-1-Yl)Isoquinoline Hydrochloride]",176 to 178 °C
18,"CCCC(=O)Nc1ccc(-c2cc3ccccc3c(N3CCN(CC)CC3)n2)cc1 (as salt: hydrochloride) [Example 70, 3-(4-Propylcarbonylaminophenyl]-1-(4-Ethylpiperazin-1-Yl)Isoquinoline Hydrochloride]",170 to 172 °C

# Reference: US6875761B2 (Eisai Co., Ltd., priority 1997, dated 2005)
